Like-named read-outs stand apart in the source and are kept apart here.

We go through 25 compounds from patent US20140378460A1, “COMPOSITIONS AND METHODS FOR TREATING NEURODEGENERATIVE DISEASE” (COGNITION THERAPEUTICS, INC., priority 2011, published 2014).

Test [1] relates to Abeta oligomer-induced membrane trafficking deficits in primary hippocampal neurons. As to the kind of experiment: Membrane trafficking/exocytosis (MTT) assay. In kind it is cell-based, rat. The note with it: for IC50: read-out: Membrane trafficking IC50. How it is done: The methods used to generate the results were as follows in the Membrane Trafficking/Exocytosis (MTT) assay.
Primary hippocampal neurons from E18 Sprague-Dawley rat embryos were plated at optimized concentrations in 384 well plates in NB media (Invitrogen). Neurons were maintained in cultures for 3 weeks, with twice weekly feeding of NB media with N2 supplement (Invitrogen).
A test compound was added to cells at concentrations ranging from 100 uM to 0.001 nM followed by addition of vehicle or Abeta oligomer preparations (3 μM total Abeta protein concentration), and incubated for 1 to 24 hr at 37° C. in 5% CO2. MTT reagent (3-(4,5-dimethylthizaol-2-yl)-2,5diphenyl tetrazolium bromide) (Roche Molecular Biochemicals) was reconstituted in phosphate buffered saline to 5 mg/mL. 10 μl, of MTT labeling reagent is added to each well and incubated at 37° C. for 1 h, then imaged. Exocytosis was assessed by automated microscopy and image processing to quantify the amount of endocytosed and exocytosed formazan.
Each assay plate was formatted so that compounds are tested with and without Abeta oligomer on each plate.

The target of test [2] is Sigma-1 receptors (Homo sapiens, UniProt Q99720). As to the kind of experiment: Sigma-1 competitive radioligand binding, [3H](+)pentazocine, Jurkat cell membranes.
Chain of Sigma-1 receptors (Homo sapiens, UniProt Q99720) (Q99720 whole entry): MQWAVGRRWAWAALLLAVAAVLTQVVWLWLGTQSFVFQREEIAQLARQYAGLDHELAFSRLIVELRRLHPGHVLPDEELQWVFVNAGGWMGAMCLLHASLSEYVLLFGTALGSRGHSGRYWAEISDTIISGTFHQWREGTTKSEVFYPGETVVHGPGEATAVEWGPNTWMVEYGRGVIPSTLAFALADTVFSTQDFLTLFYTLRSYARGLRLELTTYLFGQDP
Procedure: (§1) Reactions were terminated by rapid filtration through Whatman GF/C filters using a Brandel 12R cell harvester followed by two washes with ice-cold buffer. Radioactivity on the dried filter discs was measured using a liquid scintillation analyzer (Tri-Carb 2900TR; PerkinElmer Life and Analytical Sciences). The displacement curves were plotted and the Ki values of the test ligands for the receptor subtypes were determined using GraphPad Prism (GraphPad Software Inc., San Diego, Calif.). The percentage specific binding was determined by dividing the difference between total bound (disintegrations per minute) and nonspecific bound (disintegrations per minute) by the total bound (disintegrations per minute).
The target of test [3] is T1, sigma-2 receptor (Rattus norvegicus, UniProt Q5U3Y7).
T1 sequence (Q5U3Y7 1-176): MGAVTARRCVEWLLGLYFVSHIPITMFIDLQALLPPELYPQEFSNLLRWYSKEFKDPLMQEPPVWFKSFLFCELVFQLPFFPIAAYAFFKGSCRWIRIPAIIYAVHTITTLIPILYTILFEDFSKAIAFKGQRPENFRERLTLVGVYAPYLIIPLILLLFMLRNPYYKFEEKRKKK
In words: Sigma-2 competitive radioligand binding, [3H]DTG with 300 nM (+)pentazocine, rat cerebral cortex membranes.
Procedure: as §1

The target of test [4] is T1, sigma-2 receptor. Further details: other: known prior art compounds, published studies. The note with it: cited from earlier work.
Test [5] relates to Sigma-1 receptors. Conditions: known prior art compounds; cited from earlier work.
Test [6] concerns the target T2, Sigma-1 receptors (UniProt Q60492).
T2 construct: other: known prior art compounds, published studies
The note with it: cited from earlier work.

Test [7] concerns Abeta oligomer-induced synapse loss in primary hippocampal neurons. In words: Synapse loss assay. It counts as cell-based, rat. The note with it: for Block synapse loss: Table 11B. How it is done: In this assay, Abeta oligomers were brought in contact with mature primary neurons in culture and their binding was determined by immunohistochemistry (anti-Abeta antibody) and quantified by image processing. The amount of Abeta in neuronal dendrites is assessed by counting the number of labeled puncta on the neuritis. […] This labeling is associated with synapses, co-localizing with the post-synaptic scaffold protein PSD-95 (Lacor et al., '04). […] The number of synapses can also be quantified in this assay by immunofluorochemistry. Similar procedures for binding assays can be found in the literature. […] Review.
Primary hippocampal neuronal culture was established as in the membrane trafficking assay above. […] Pretreatment with compounds to be tested lasted for 1 hr and addition of Abeta oligomers or no oligomer (vehicle alone) in a final concentration of 70 ul was followed by incubation for an additional 23 hrs.
The plates were then washed 3× with PBS for 5 min each. The plates were blocked at RT for 1 hr in 5% goat serum and 0.5% Triton X-100 in PBS. […] Primary antibodies were incubated overnight at 4° C. The plates were then washed 3× with PBS for 5 min each. […] Secondary antibodies were incubated at RT for 1 hr. The plates were washed once with PBS. DAPI (4′,6-diamidino-2-phenylindole, Invitrogen) was then applied at 0.03 ug/ul and incubated at RT for 5 min, then washed with PBS.

Where [8] appears, read: Rattus norvegicus, Hippocampal neuron, dosed prior to Abeta oligomer addition, read-out: EC50 in inhibiting amyloid beta effect in Cell Measured by Membrane Trafficking Assay.
The mark [9] stands for this setting: Table 11C, read-out: S2 binding Ki.
Where [10] appears, read: Table 11C, known prior art compounds, read-out: Inhibition Abeta oligomer-induced Membrane Trafficking EC50.
Where [11] appears, read: dosed prior to Abeta oligomer addition, read-out: EC50 in inhibiting amyloid beta effect in Cell Measured by Membrane Trafficking Assay.
Setting [12] is: Table 11C, read-out: S1 binding Ki.
The mark [13] stands for this setting: known prior art compounds, published studies, read-out: Sigma 1 Binding Ki.
Where [14] appears, read: scaffold drawing 245, R' varied, read-out: Membrane Trafficking EC50.
Where [15] appears, read: Table 11D, read-out: Sigma-1 Receptor Ki.
Setting [16] is: known prior art compounds, published studies, read-out: Sigma 2 Binding Ki.
The mark [17] stands for this setting: Rattus norvegicus, Hippocampal neuron, Table 11C, known prior art compounds, read-out: Inhibition Abeta oligomer-induced Membrane Trafficking EC50.
Setting [18] is: Table 11D, read-out: Sigma-2 Receptor Ki.
[19] abbreviates: Sigma 1 Binding Ki (nM), Table 2, own compounds.
Setting [20] is: Sigma 2 Binding Ki (nM), Table 2, own compounds.

`Cc1ccc([C@@H](C)CC(CC(C)(C)O)NCC(C)C)cc1` (stereo partly drawn) [Compound IXb]: the “Max Inhibition of Abeta (%)” value in test [1] is listed as 97%. Moreover, the EC50 in test [1] (setting [8]) was 6900 nM. Also, the results for the Ki in test [2] and in test [3] were 190 nM and 23 nM, respectively.

In the case of `CC12CC3CC(C)(C1)CC(N)(C3)C2` [Memantine, memantine], the inhibition at 28 µM in test [1] (Rattus norvegicus, Hippocampal neuron, 28 μM, read-out: Inhibition of oligomer effects) was found to be 50%.

As for `C=CCN1CC[C@]2(C)c3cc(O)ccc3C[C@H]1[C@H]2C` [SKF 10,047], the Ki in test [4] (setting [9]) is above 10000 nM. In addition, the “Functional Neuronal Phenotype” value in test [1] (Table 11C) is “Inactive”. Also, the EC50 in test [1] (setting [10]) was above 30000 nM.

As to `COc1cc(CCC(C)NCc2ccc(C(F)(F)F)cc2)ccc1O` (single isomer, unassigned; (+)) [(+) enantiomer], in test [1] (setting [11]), the EC50 worked out at 5600 nM.

`COc1cc(CCC(C)NCc2ccc(C(F)(F)F)cc2)ccc1O` (single isomer, unassigned; (+)) [(+) enantiomer of Cpd II]: the EC50 in test [1] (read-out: EC 50 in screening assay using single concentration of Abeta oligomer) came to 5600 nM.

Consider `CN1CCN(CCc2ccc(Cl)c(Cl)c2)CC1` [BD1063], for which the “Sigma 1 (Type of Activity)” value in test [5] was “(antagonist)”. Besides, the Ki in test [6] (setting [12]) and in test [6] (setting [13]) was 8.8 nM throughout. For the same compound, in test [1] (Table 11C), the “Functional Neuronal Phenotype” value was “Inactive”. Further, in test [1] (setting [10]), the EC50 was above 30000 nM.

Regarding `COc1cc(CCC(C)NCc2ccccc2)ccc1O` (stereo not drawn) [Entry 3], the EC50 in test [1] (setting [14]) was found to be 20000 nM.

With `CNC(C)CCc1ccc(O)c(OC)c1` (stereo not drawn) [Entry 5], in test [1] (setting [14]), the EC50 was 30000 nM.

In the case of `COc1cc(CCC(C)NCc2ccc(C(F)(F)F)cc2)ccc1O` (single isomer, unassigned; (-)) [(−) enantiomer], in test [1] (setting [11]), the EC50 came to 10900 nM.

For `c1ccc(CCCCN2CCC(c3ccccc3)CC2)cc1` [PPBP], the “Sigma 1 (Type of Activity)” value in test [5] is listed as “(agonist)”. The Ki in test [6] (setting [12]), in test [6] (setting [15]) and in test [6] (setting [13]) was 0.8 nM each time. In addition, the “Functional Neuronal Phenotype” value in test [1] (Table 11C) and in test [1] (Table 11D) was “Antagonist” throughout. For the same compound, in test [1] (setting [10]), the EC50 was found to be 10900 nM. Further, in test [1] (Table 11D), the half-inhibitory concentration (IC50) amounted to 10900 nM.

With `CCCN(CCC)CCc1ccc(OC)c(OCCc2ccccc2)c1` [NE100], the values for the Ki in test [4] (setting [16]) and in test [6] (setting [13]) were 170 nM and 1.1 nM, respectively. In addition, in test [5], the “Sigma 1 (Type of Activity)” value was “(antagonist)”.

As to `Cc1ccccc1NC(=N)Nc1ccccc1C` [DTG], in test [5], the “Sigma 1 (Type of Activity)” value was “(agonist)”. In addition, in test [1], the “Max Inhibition of Abeta (%)” value was 23%. In test [1] (setting [17]), the EC50 is above 20000 nM. Further, the “Functional Neuronal Phenotype” value in test [1] (Table 11C) is given as “Inactive”.

Consider `COc1cc(CCC(C)NCc2ccc(Cl)cc2)ccc1O` (stereo not drawn) [Entry 2], for which the EC50 in test [1] (setting [14]) worked out at 12000 nM.

In the case of `O=C(OCCN1CCOCC1)C1(c2ccccc2)CCCCC1` [PRE-84], in test [4] (setting [16]), the Ki is 13100 nM. For the same compound, the “Sigma 1 (Type of Activity)” value in test [5] is recorded as “(agonist)”. Also, in test [1], the “Activity in membrane trafficking assay” value is “inactive” and the “Max Inhibition of Abeta (%)” value is listed as 38%. For the same compound, in test [1] (Table 11C), the “Functional Neuronal Phenotype” value is on record as “Inactive”. Further, the EC50 in test [1] (setting [10]) was above 30000 nM.

Consider `COc1cccc2c1CCCC2CCCN1CCN(C2CCCCC2)CC1` (stereo not drawn) [PB 28], for which the Ki in test [4] (setting [9]), in test [4] (setting [18]) and in test [4] (setting [16]) was 0.8 nM each time. Moreover, the “Max Inhibition of Abeta (%)” value in test [1] is 84%. Moreover, the “Functional Neuronal Phenotype” value in test [1] (Table 11C) and in test [1] (Table 11D) was “Antagonist” throughout. Further, the EC50 in test [1] (setting [10]) is 1000 nM. In test [1] (Table 11D), the IC50 was 1000 nM.

`CN[C@H]1CC[C@@H](c2ccc(Cl)c(Cl)c2)c2ccccc21` [Sertraline]: the “Sigma 1 (Type of Activity)” value in test [5] is reported as “(antagonist)”.

Regarding `CCCN(CCC)CCc1ccc(OC)c(OCCc2ccccc2)c1` [NE 100], the Ki in test [4] (setting [9]) was 170 nM; in test [4] (setting [18]), 170 nM; in test [6] (setting [12]), 1.1 nM; in test [6] (setting [15]) it was 1.1 nM. Moreover, in test [1], the “Max Inhibition of Abeta (%)” value came out at 98%. For the same compound, the “Functional Neuronal Phenotype” value in test [1] (Table 11C) and in test [1] (Table 11D) was “Antagonist” in each case. In addition, the EC50 in test [1] (setting [10]) turned out to be 1300 nM. In test [1] (Table 11D), the IC50 was 1300 nM.

Compound `COc1cc(CCC(C)NCc2ccc(C(F)(F)F)cc2)ccc1O` (single isomer, unassigned) [II (−) isomer] gave a Block synapse loss in test [7] of 0%. Besides, the “Functional Neuronal Phenotype” value in test [1] (Table 11B) is given as “Antagonist”. Further, the Ki in test [2] (S1 binding Ki (nM), Table 11B) was found to be 46 nM; in test [2] (setting [19]) it was 46 nM; in test [3] (S2 binding Ki (nM), Table 11B), 63 nM; in test [3] (setting [20]), 63 nM.

On to `CC(C(O)c1ccc(O)cc1)N1CCC(Cc2ccccc2)CC1` (stereo not drawn) [Ifenprodil], for which the “Max Inhibition of Abeta (%)” value in test [1] was 38%. Moreover, the EC50 in test [1] (setting [17]) was above 20000 nM. For the same compound, in test [1] (Table 11C), the “Functional Neuronal Phenotype” value was “Inactive”.

As to `CN(CCc1ccc(Cl)c(Cl)c1)CCN1CCCC1` [BD1008], the Ki in test [4] (setting [9]), in test [4] (setting [18]) and in test [4] (setting [16]) was 8 nM each time. Also, in test [5], the “Sigma 1 (Type of Activity)” value is on record as “(antagonist)”. The “Functional Neuronal Phenotype” value in test [1] (Table 11C) and in test [1] (Table 11D) was “Antagonist” each time. Further, the EC50 in test [1] (setting [10]) was found to be 1500 nM. Besides, the IC50 in test [1] (Table 11D) was 1500 nM.

Take `CCCN(CCC)CCc1ccc(OC)c(OCCc2ccccc2)c1` [NE-100]: in test [7], the “Effect on Abeta oligomer-induced synapse loss” value is on record as “completely eliminated synapse loss”.

As to `COc1cc(CCC(C)NCCC(C)C)ccc1O` (stereo not drawn) [Entry 4], in test [1] (setting [14]), the EC50 was above 30000 nM.

For the compound `CC(C)=CC(C[C@H](C)c1ccc(C)cc1)NCC(C)C` (stereo partly drawn) [Compound IXa], the “Max Inhibition of Abeta (%)” value in test [1] is given as 76%. In test [1] (setting [8]), the EC50 stood at 4900 nM. For the same compound, the values for the Ki in test [2] and in test [3] were 89 nM and 21 nM, respectively.

In test [7], `COc1cc(CCC(C)NCc2ccc(C(F)(F)F)cc2)ccc1O` (single isomer, unassigned) [II (+) isomer] came in with a Block synapse loss of 47%. In addition, in test [1] (Rattus norvegicus, Hippocampal neuron, Table 11B, read-out: Inhibition Abeta oligomer-induced Membrane Trafficking EC50), the EC50 was found to be 5600 nM. Further, the “Functional Neuronal Phenotype” value in test [1] (Table 11B) is “Antagonist”. In addition, the Ki in test [2] (S1 binding Ki (nM), Table 11B) turned out to be 100 nM; in test [2] (setting [19]), 100 nM; in test [3] (S2 binding Ki (nM), Table 11B), 80 nM; in test [3] (setting [20]), 52 nM.

As to `C=CCN1CCC2(C)c3cc(O)ccc3CC1C2C` (stereo not drawn) [SFK10047], the Ki in test [4] (setting [16]) was 39700 nM. Also, the “Sigma 1 (Type of Activity)” value in test [5] is recorded as “(agonist)”.
